Laboratory results reported in US12589103B2, “Antimicrobial and antiviral effects of C2-C7 alkyl boronic acids” (CORNELL UNIVERSITY, priority 2019, dated 2026).
“Also recorded” adds a separate entry of the source.

Assays:
Salmonella [1] = assay: Adhesion and invasion of colonic epithelial cells by Salmonella; type: cell-based
[2] = test system: AIEC E. coli (541-1, LF82) virulence genes; assay: Virulence gene expression of AIEC (qRT-PCR); type: cell-based; conditions: 30 mM
Procedure: Total RNA was extracted using the Qiagen RNAProtect-RNeasy Kit per manufacturer's protocol. Total RNA was treated with TURBO DNA-Free Kit (Ambion), followed by a two-step qRT-PCR analysis, using Qiagen's QuantiTect Reverse Transcription Kit and QuantiNova SYBR Green PCR Kit. Each qPCR reaction contained 1 μl of cDNA, 0.7 μl of each forward and reverse primers (10 μM), 5 μL of 2× SYBR Green Master Mix, 1 μl of QN ROX Reference Dye and […] of nuclease-free water to make the total volume of 10 μl. The reaction was run with ABI7000 (Applied Biosystems). […] The relative change of a targeted gene expression was calculated by using the equation RQ=2^−ΔΔCT.

[3] = 8-week toxicity study in mice, drinking water; type: in vivo, C57/B18 mice
Procedure: The toxicity of boric and ethylboronic acids were examined with C57/B18 mice. At concentrations of 0, 10, 20, and 40 mM, the two chemicals were given to each group (6 mice) in drinking water. The body weight of each mouse was recorded weekly for 8 weeks, and fecal samples were also collected weekly for 16s sequencing. All animals were sacrificed at the end of 8th week. The length of whole intestine and ileum of each mouse was measured, and sections of the intestine (i. e. small intestine, ileum, cecum, and large intestine) were taken for histopathological and FISH analysis. Fecal samples were used for 16s and lipocalin analysis.
For lipocalin analysis, mouse fecal pellets were collected and frozen at −80 C during toxicity study. To determine lipocalin activity fecal pellets were diluted in microfuge tubes 1/30 with 0.1% Tween20/PBS and vortexed for 20 min at maximum speed. Undissolved particles were removed by centrifuging at 12,000 rpm for 10 min at 4 C. Supernatant was removed and placed into a clean microfuge tube. Lipocalin activity was determined using Mouse Lipocalin-2/NGAL DuoSet ELISA Kit (R&D Systems, DY1857) per manufacturer's instructions.

[4] = test system: typhoid toxin B subunit (CdtB); type: cell-based, Salmonella typhi
[5] = test system: cancer associated E. coli (HM288); assay: Growth in M9 media; conditions: EBA 10-40 mM
[6] = test system: adherent invasive E. coli (AIEC, 541-1); assay: Growth in M9 media with ethanolamine or NH4Cl; conditions: BA, EBA 10-40 mM, PBA 15 mM, MBA 30 mM
Salmonella [7] = assay: Growth of five Salmonella strains; type: cell-based
Procedure: (§1) The control sample contained 40 mM NaCl.

[8] = type: in vivo, mouse
Description: This novel observation of an anti-inflammatory effect of EBA was corroborated in subsequent collaborative studies. […] These experiments confirm that EBA has an anti-inflammatory effect in two distinct murine models of microbially driven IBD.

[9] = test system: AIEC E. coli from dogs (MDR and non-MDR strains); assay: Growth of MDR and non-MDR E. coli associated with Granulomatous colitis in dogs; type: cell-based; conditions: 40 mM, LB broth, 48 hrs
Procedure: (§2) The ability of C1-C3 alkyl boronic acids and BA to impact the growth of MDR E. coli isolated from people and dogs was evaluated using a temperature controlled 96-well multiplate incubator at 37° C. over 48 hrs. Growth in media (LB broth) with and without ABA C2-6 (40 mM) was monitored by readings at OD600 with the AUC of the growth curve calculated.
Non-MDR strains KD1, KD2, and KD3 were also evaluated.

Listeria monocytogenes = assay: Bacterial growth panel, Listeria; type: cell-based
Procedure: as §1
Growth of bacteria with or without addition of C2-C8 C10, and C12 alkyl boronic acids, BA, or FMPBA was monitored by readings at OD600. […] The area under the curve (“AUC”) of the growth curve was calculated and the results were expressed as AUC+test compound:AUC−test compound.

[10] = test system: AIEC E. coli isolated from people (MDR and non-MDR strains); assay: Growth of MDR and non-MDR E. coli associated with Crohn's disease; type: cell-based; conditions: 40 mM, LB broth, 48 hrs
Procedure: as §2

[11] = test system: AIEC and cancer associated E. coli; assay: Soft agar motility assay, E. coli; type: cell-based; conditions: 10 h, AIEC NC101, 541-1, cancer associated E. coli
Procedure: The ability of ABA C1-3 and BA to impact the motility of E. coli and Salmonella was evaluated using sloppy agar treated with and without BA and C1-C3 alkyl boronic acids. Motility is strongly linked to the virulence phenotype of these bacterial strains. E. coli was grown overnight at 37° C. in LB broth. Soft agar plates (1% tryptone, 0.5% NaCl, 0.25% agar) were prepared the day before the assay was carried out. Sterile NaCl (control), boric or boronic acid stock solution was added into the agar right before pouring the plates. The overnight cultures of E. coli were transferred (3 μl) on to the center of each plate, followed by incubation of the plates at 37° C. for 10 h. E. coli motility was quantified by measuring the diameter of the circular swarming area formed by the growing motile bacteria.

[12] = test system: diarrheagenic E. coli and APEC; assay: Growth of diarrheagenic and APEC E. coli in LB media; type: cell-based; conditions: 30 mM
Procedure: as §1
Diarrheagenic E. coli pathogroups differ by their preferential host colonization sites, virulence mechanisms, and clinical symptoms.

[13] = test system: AIEC in murine macrophage J774A.1 cells; assay: Uptake and survival of AIEC in J774A.1 macrophages; type: cell-based, E. coli
Feline Lung cells = assay: Cytotoxicity in FIPV infected Feline Lung cells

Q: Which results are given for CCB(O)O [EBA, ethyl boronic acid]?
A: suppression of adhesion and invasion of Salmonella (Salmonella [1]): 40-50%; pduC expression in 541-1 [2]: Upregulation; virulence gene expression of AIEC ([2]; mid log phase, compared with BA): inhibited virulence gene expression; adverse effects in mice ([3]; 40 mM): safely administered to mice without adverse effects; fecal 16S profiles ([3]; mouse, in vivo): not significantly different from control mice; typhoid toxin (CdtB) production [4]: inhibition of toxin production (CdtB); inhibition of growth of cancer associated E. coli HM288 [5]: effective; inhibition of growth of AIEC 541-1 [6]: much more effective; inhibition of growth of Salmonella serovars (Salmonella [7]): inhibit the growth of multiple serovars of Salmonella more effectively than BA; intestinal inflammation, fecal lipocalin and histopathology ([8]; SIHUMI colonized 11-10−/− mouse): markedly reduced intestinal inflammation; adverse or pro-inflammatory effects ([8]; mouse, in vivo): no adverse or pro-inflammatory effects; growth inhibition of canine Granulomatous colitis associated AIEC, MDR and non-MDR [9]: more effective than BA over a wider range of AIEC, including MDR and non-MDR strains; selectivity of activity against Listeria monocytogenes (Listeria monocytogenes): selectivity apparent; growth inhibition of Crohn's disease associated AIEC, MDR and non-MDR [10]: more effective than BA over a wider range of AIEC, including MDR and non-MDR strains; motility of E. coli [11]: highly effective at blocking motility of AIEC and cancer associated E. coli; inhibition of growth of diarrheagenic and APEC E. coli [12]: have activity versus the diarrheagenic E. coli and APEC that varies by pathogroup; also recorded: more effective in inhibiting bacterial growth than BA overall; degree of cytopathic effect (Caco-2 cells): EBA<BA<PBA; survival of AIEC in J774A.1 macrophages ([13]; 30 mM during infection, 24 h post infection): inhibited the survival; uptake of AIEC by J774A.1 macrophages ([13]; 30 mM, 1 h): inhibited the uptake; cytotoxicity in antiviral assay (Feline Lung cells): Cytotoxicity was not observed at antiviral doses
